Results published in US20150290200A1, “INTRACELLULAR KINASE INHIBITORS” (Pharmacyclics Inc., priority 2006, published 2015).
pIC50: −log10 of the molar value. Where two headings read alike, the source gives them in different places.

Tests used:
[1] = molecular target: T1, BTK kinase domain (Homo sapiens, UniProt Q06187); experiment: In vitro kinase assay (HITHUNTER), BTK; format: biochemical
T1 construct: The kinase domains of BTK, LCK and ERK were expressed as recombinant purified proteins; made in house
Source text: Similarly, commercially available reagents such as HITHUNTER™ were used to evaluate the effect of compounds on the activity of additional kinases. The kinase domains of BTK, LCK and ERK were expressed as recombinant purified proteins were used for these studies.

[2] = molecular target: T2, ITK kinase domain (Homo sapiens, UniProt Q08881); experiment: In vitro kinase assay (HITHUNTER enzyme fragment complementation), ITK; format: biochemical
T2 construct: N-terminally His-tagged ITK kinase domain (amino acids 352-617); His (N); made in house
T2 sequence (Q08881 352-617): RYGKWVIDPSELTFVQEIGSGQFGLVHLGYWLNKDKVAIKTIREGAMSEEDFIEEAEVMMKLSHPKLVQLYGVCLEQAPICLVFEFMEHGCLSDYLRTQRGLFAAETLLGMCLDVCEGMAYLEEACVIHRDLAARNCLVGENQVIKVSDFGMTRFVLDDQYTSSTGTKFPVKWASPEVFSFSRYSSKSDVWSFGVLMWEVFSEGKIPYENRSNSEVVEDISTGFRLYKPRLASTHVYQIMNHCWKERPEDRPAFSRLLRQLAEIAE
Procedure: Compounds were screened using the HITHUNTER™ enzyme fragment complementation method (Discoverx). Briefly, a recombinantly produced, N-terminally His-tagged ITK kinase domain (amino acids 352-617) was incubated with various concentrations of individual compounds. ATP and substrate were added, and the kinase reaction was allowed to proceed for 2-16 hours. Commercially available detection reagents were added and allowed to react for 2-4 hours. The reaction was evaluated by luminescence. Initial results were confirmed using full-length recombinant ITK protein.
In order to confirm the mechanism by which compounds depicted herein interact with the kinase domain of Tec and EGFR kinases, we created a point mutant of the ITK kinase domain, whereby the key amino acid, namely C442 was mutated to alanine. The protein was expressed in a commercial baculovirus expression system using the manufacturer's general protocol (Invitrogen, pBlueBac). Protein was expressed and purified using standard techniques. […] While the activity of WT-ITK was inhibited by compounds depicted in this application, the same compounds had no activity towards the C442A mutant kinase domain.

[3] = Table 3, Compound, read-out: IC50 ITK
[4] = Table 3, naphthyl analog, read-out: IC50 ITK

T1 sequence (Q06187 402-655 limits assumed): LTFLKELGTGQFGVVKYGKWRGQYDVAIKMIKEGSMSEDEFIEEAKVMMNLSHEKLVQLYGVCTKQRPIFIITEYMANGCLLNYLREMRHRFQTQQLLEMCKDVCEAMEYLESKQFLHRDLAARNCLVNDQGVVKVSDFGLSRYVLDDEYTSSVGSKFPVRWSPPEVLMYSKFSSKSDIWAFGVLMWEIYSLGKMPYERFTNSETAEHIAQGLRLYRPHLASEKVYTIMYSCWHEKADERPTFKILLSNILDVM

Structure (SMILES): O=C(CCN1CCC(C(=O)c2ccncc2)CC1)c1ccc2ccccc2c1
- pIC50 ([1]; Table 5): 6.31
- pIC50 ([2]; Table 5, read-out: IC50 ITK): 6.55

Structure (SMILES): O=C(CCN1CCC(CNC(=O)C(F)(F)F)CC1)c1ccc2ccccc2c1
- pIC50 ([1]; Table 5): 6.58
- pIC50 ([2]; Table 5, read-out: IC50 ITK): 6.66

Structure (SMILES): O=C(CCNCC1CCNCC1)c1ccc2ccccc2c1
- pIC50 ([1]; Table 5): 7.00
- pIC50 ([2]; Table 5, read-out: IC50 ITK): 6.79

Structure (SMILES): O=C(CCNCC1CCN(C(=O)c2ccncc2)CC1)c1ccc2ccccc2c1
- pIC50 ([1]; Table 5): 8.40
- pIC50 ([2]; Table 5, read-out: IC50 ITK): 7.44

Structure (SMILES): CN(C)C(=O)N1CCC(CNCCC(=O)c2ccc3ccccc3c2)CC1
- pIC50 ([1]; Table 5): 6.43
- pIC50 ([2]; Table 5, read-out: IC50 ITK): 6.13

Structure (SMILES): OC(CCN1CCOCC1)c1ccc2ccccc2c1 (centres unmarked)
- IC50 ITK ([2]; Table 7, elimination mechanism): no IC50

Structure (SMILES): CC(C)(CN1CCCCC1)C(=O)c1ccc2ccccc2c1
- IC50 ITK ([2]; Table 7, elimination mechanism): no IC50

Structure (SMILES): CC(C)N(CCC(=O)c1ccc2ccccc2c1)C(C)C [drawing 104]
- pIC50 ([2]; Table 1, ITK, read-out: IC50): 7.74

Structure (SMILES): CN(CCC(=O)c1ccc2ccccc2c1)Cc1ccccc1 [drawing 107]
- pIC50 ([2]; Table 1, ITK, read-out: IC50): 7.59

Structure (SMILES): CN1CCN(CCC(=O)c2ccc3ccccc3c2)CC1 [drawing 110]
- pIC50 ([2]; Table 1, ITK, read-out: IC50): 7.30

Structure (SMILES): O=C(CCN1CCN(CC2CCCCC2)CC1)c1ccc2ccccc2c1 [drawing 111]
- pIC50 ([2]; Table 1, ITK, read-out: IC50): 7.94

Structure (SMILES): O=C(CCN1Cc2ccccc2C1)c1ccc2ccccc2c1 [drawing 114]
- pIC50 ([2]; Table 1, ITK, read-out: IC50): 7.54

Structure (SMILES): O=C(CCN1CCc2ccccc2C1)c1ccc2ccccc2c1 [drawing 115]
- pIC50 ([2]; Table 1, ITK, read-out: IC50): 7.74

Structure (SMILES): COc1cc2c(cc1OC)CN(CCC(=O)c1ccc3ccccc3c1)CC2 [drawing 116]
- pIC50 ([2]; Table 1, ITK, read-out: IC50): 9.07

Structure (SMILES): O=C(CCN1CCOCC1)c1ccc2ccccc2c1 [drawing 117]
- pIC50 ([2]; Table 1, ITK, read-out: IC50): 7.14

Structure (SMILES): CN(CCC(=O)c1ccc2ccccc2c1)Cc1ccco1 [drawing 118]
- pIC50 ([2]; Table 1, ITK, read-out: IC50): 7.71

Structure (SMILES): O=C1COc2ccc(C(=O)CCN3CCOCC3)cc2N1 [drawing 166]
- pIC50 ([1]; Table 3, Compound): 6.11
- pIC50 [2, 3]: 8.23

Structure (SMILES): O=C(CCN1CCOCC1)c1ccc2ccccc2c1 [drawing 167]
- pIC50 ([1]; Table 3, naphthyl analog): 7.40
- pIC50 [2, 4]: 7.70

Structure (SMILES): COc1cc2c(cc1OC)CN(CCC(=O)c1ccc3c(c1)NC(=O)CO3)CC2 [drawing 168]
- pIC50 ([1]; Table 3, Compound): 6.56
- pIC50 [2, 3]: 7.52

Structure (SMILES): COc1cc2c(cc1OC)CN(CCC(=O)c1ccc3ccccc3c1)CC2 [drawing 169]
- pIC50 ([1]; Table 3, naphthyl analog): 7.89
- pIC50 [2, 4]: 8.15

Structure (SMILES): CN(C)C1CCN(CCC(=O)c2ccc3ccccc3c2)C1 (centres unmarked) [drawing 171]
- pIC50 ([1]; Table 3, naphthyl analog): 8.67
- pIC50 [2, 4]: 8.15

Structure (SMILES): CN(C)C1CCN(CCC(=O)c2ccc3ccccc3c2)CC1 [drawing 177]
- pIC50 ([1]; Table 3, naphthyl analog): 8.18
- pIC50 [2, 4]: 8.05

Structure (SMILES): CC(C)N(CCC(=O)c1ccc2ccccc2c1)C(C)C [drawing 179]
- pIC50 ([1]; Table 3, naphthyl analog): 9.14
- pIC50 [2, 4]: 8.05

Structure (SMILES): O=C(CCN1CCC(Cc2ccccc2)CC1)c1ccc2ccccc2c1 [drawing 182]
- pIC50 ([2]; Table 4, read-out: IC50 ITK): 7.03

Structure (SMILES): O=C(CCN1CCCC1)c1ccc2ccccc2c1 [drawing 184]
- pIC50 ([2]; Table 4, read-out: IC50 ITK): 7.13

Structure (SMILES): O=C(CCN1CCOCC1)c1ccc2ccccc2c1 [drawing 185]
- pIC50 ([1]; Table 4): 7.41
- pIC50 ([2]; Table 4, read-out: IC50 ITK): 7.70

Structure (SMILES): O=C(CCN1CCOCC1)c1cc2ccccc2cn1 [drawing 187]
- IC50 BTK ([1]; Table 4): no IC50
- pIC50 ([2]; Table 4, read-out: IC50 ITK): 5.77

Structure (SMILES): O=C(CCN1CCOCC1)c1ccc2occc2c1 [drawing 192]
- pIC50 ([1]; Table 4): 5.69
- pIC50 ([2]; Table 4, read-out: IC50 ITK): 7.12

Structure (SMILES): NC(=O)c1ccc2cc(C(=O)CCN3CCOCC3)ccc2c1 [drawing 198]
- pIC50 ([1]; Table 4): 9.00
- pIC50 ([2]; Table 4, read-out: IC50 ITK): 8.30

Structure (SMILES): O=C(CCN1CCOCC1)c1ccc2ccccc2c1 [drawing 200]
- pIC50 ([1]; Table 5): 7.40
- pIC50 ([2]; Table 5, read-out: IC50 ITK): 7.69

Structure (SMILES): O=C(CCN1CCCC1)c1ccc2ccccc2c1 [drawing 201]
- pIC50 ([1]; Table 5): 5.09
- pIC50 ([2]; Table 5, read-out: IC50 ITK): 6.86

Structure (SMILES): CN(CCC(=O)c1ccc2ccccc2c1)Cc1ccccc1 [drawing 203]
- pIC50 ([2]; Table 5, read-out: IC50 ITK): 7.77

Structure (SMILES): O=C(CCN1CCC(Cc2ccccc2)CC1)c1ccc2ccccc2c1 [drawing 204]
- pIC50 ([1]; Table 5): 6.89
- pIC50 ([2]; Table 5, read-out: IC50 ITK): 7.22

Structure (SMILES): O=C(CCN1CCN(c2ccccn2)CC1)c1ccc2ccccc2c1 [drawing 205]
- pIC50 ([2]; Table 5, read-out: IC50 ITK): 7.83

Structure (SMILES): CN1CCN(CCC(=O)c2ccc3ccccc3c2)CC1 [drawing 208]
- pIC50 ([2]; Table 5, read-out: IC50 ITK): 7.51

Structure (SMILES): O=C(CCN1CCc2ccccc2C1)c1ccc2ccccc2c1 [drawing 209]
- pIC50 ([2]; Table 5, read-out: IC50 ITK): 7.67

Structure (SMILES): O=C(CCN1CCN(c2ccccn2)CC1)c1ccc2ccccc2c1 [drawing 211]
- pIC50 ([2]; Table 5, read-out: IC50 ITK): 7.62

Structure (SMILES): CN(CCC(=O)c1ccc2ccccc2c1)Cc1ccco1 [drawing 215]
- pIC50 ([2]; Table 5, read-out: IC50 ITK): 7.73

Structure (SMILES): CN(C)C1CCN(CCC(=O)c2ccc3ccccc3c2)CC1 [drawing 216]
- pIC50 ([2]; Table 5, read-out: IC50 ITK): 8.02

Structure (SMILES): O=C(CCN1Cc2ccccc2C1)c1ccc2ccccc2c1 [drawing 217]
- pIC50 ([2]; Table 5, read-out: IC50 ITK): 7.79

Structure (SMILES): O=C(CCN1CCN(CC2CCCCC2)CC1)c1ccc2ccccc2c1 [drawing 219]
- pIC50 ([2]; Table 5, read-out: IC50 ITK): 7.83

Structure (SMILES): CC(C)N(CCC(=O)c1ccc2ccccc2c1)C(C)C [drawing 220]
- pIC50 ([2]; Table 5, read-out: IC50 ITK): 8.04

Structure (SMILES): O=C(CCN1CCOCC1)c1ccc2ccccc2c1 [drawing 254]
- pIC50 ([2]; Table 7, elimination mechanism, read-out: IC50 ITK): 7.35
